The structures appear in SMILES notation.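 Growth conditions: 96-well plates. Treatment: test compound, 48 hours, 5 concentrations. Analysis: linear interpolation between bracketing concentrations; unreached endpoints set to highest concentration. TGI: concentration producing complete growth inhibition.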

The test system of the first assay is NCI-H522 lung. Description: growth of human tumour cells (NCI), 48 h.
In turn, `CCCCCCc1cc2cc(-c3csc(CC#N)n3)c(=O)oc2cc1O` showed a TGI of more than 100 µM.
Same read-out and setting: next, `CN1CCN(C2=NCCO2)CC1`: more than 100 µM; `O=C1CSC(c2ccc(Cl)cc2)N1c1ccc(Oc2ccc(Cl)cc2)c(Cl)c1` (stereo not given): 23.3 µM.
Still for that read-out and setting: next, `COC(=O)C([C@H](NC1(c2ccccc2)c2ccccc2-c2ccccc21)C(=O)OC)N(NC(=O)OCc1ccccc1)C(=O)OCc1ccccc1` (mixture of isomers): more than 100 µM.
Same read-out and setting: the same measure for `CC[C@@H]1CC[C@@H]2[C@H](CC[C@]3(C)[C@@H](OC(C)=O)CC[C@@H]23)[C@H]1COC(C)=O`: 56.1 µM; for `Cc1ccc(N=NC(=Nc2ccccc2)c2ccc(N(CCC#N)CCC#N)cc2)cc1`: 45.2 µM; for `C[C@@H]1CC[C@]2(C(=O)O)CC[C@]3(C)C(=CC[C@@H]4[C@@]5(C)CC[C@H](O)C(C)(C)[C@@H]5CC[C@]43C)[C@@H]2[C@]1(C)O`: 27.9 µM.
In turn, `CC(C)=CCc1c2c(c3occ(-c4ccc(O)cc4)c(=O)c3c1O)CC(C(C)(C)O)O2` (stereo not given) came in with a TGI of 34 µM.
On the same count and under the same terms, the same measure for `Nc1nc(Cl)cc(NCC2(CO)CC(=O)C2)n1`: more than 100 µM.
Still for that read-out and setting: next, `COc1ccc(C2CC(c3c(O)ccc4ccccc34)=NN2C(C)=O)cc1OC` (stereo not given): more than 100 µM; `O=C(N/N=C(/COc1ccc(Cl)cc1)N=Cc1ccncc1)c1ccncc1`: more than 100 µM.
On the same count and under the same terms, the same measure for `COc1ccc2cc(NC(=O)N/N=C\c3ccc([N+](=O)[O-])cc3)ccc2c1`: 51 µM.
`NC(N)=N/N=C/c1c(-c2ccc(N)cc2)nc2sccn12` returned a TGI of 76 µM.
On the same count and under the same terms, the same measure for `COc1cc(Br)cc2cc(-c3cn4ccsc4n3)c(=O)oc12`: more than 100 µM.
`COc1ccc(N/N=C2\CCOc3ccc(C)cc3C2=O)cc1` returned a TGI of more than 100 µM.
For the compound `COC(=O)C1SC(SC)=NC12c1ccccc1Nc1ccccc12` (stereo not given), the TGI is 49.3 µM.
On the same count and under the same terms, next, `CCOC(=O)CSc1c(C(=O)OCC)c(=O)n(-c2ccccc2)c(=S)n1-c1ccccc1`: more than 100 µM; `C=CC1(C)CCC2C(=CCC3C2(C)CC(O)C(O)C3(C)COC2OC(C(=O)O)C(O)C(O)C2O)C1` (stereo not given) (tested in a mixture with another compound): more than 100 µM; `C=C1C(=O)O[C@@H]2C(=O)[C@@H](C)CCC/C(C)=C/CC[C@@]3(C)O[C@@H]3C[C@@H]12`: 25.2 µM.
`Cc1ccccc1C(=O)N1CCc2c([nH]c3ccccc23)C1` came in with a TGI of 46.1 µM.
`Cc1nc2n(c1/C=C1/C(=O)Nc3cccc(Cl)c31)CCS2` showed a TGI of more than 100 µM.
On the same count and under the same terms, next, `CCOC(=O)C(SCCO)C(C(=O)OCC)n1cnc2c(=O)[nH]c(NC(C)=O)nc21` (stereo not given): more than 100 µM; `Cc1ccc([N+](=O)[O-])cc1NC1=NCCO1`: more than 100 µM.
Regarding `N#CCCC1C(C#N)C2(Cl)CC1(Cl)C(Cl)=C2Cl` (stereo not given), the TGI is more than 10 µM.
In the case of `CC(C)(C)N1CSC(=S)N(Cc2ccco2)C1`, the TGI was found to be 12 µM.
`O=c1c2cc([N+](=O)[O-])cnc2sn1-c1ccc([N+](=O)[O-])cc1`: the TGI came to 25.7 µM.

In another assay the test system is RPMI-8226 leukemia. Description: growth of human tumour cells (NCI), 48 h.
With `CCCCCCc1cc2cc(-c3csc(CC#N)n3)c(=O)oc2cc1O`, the TGI is more than 100 µM.
On the same count and under the same terms, the same measure for `CN1CCN(C2=NCCO2)CC1`: more than 100 µM.
In the case of `O=C1CSC(c2ccc(Cl)cc2)N1c1ccc(Oc2ccc(Cl)cc2)c(Cl)c1` (stereo not given), the TGI is 63.8 µM.
Same read-out and setting: the same measure for `COC(=O)C([C@H](NC1(c2ccccc2)c2ccccc2-c2ccccc21)C(=O)OC)N(NC(=O)OCc1ccccc1)C(=O)OCc1ccccc1` (mixture of isomers): more than 100 µM; for `CC[C@@H]1CC[C@@H]2[C@H](CC[C@]3(C)[C@@H](OC(C)=O)CC[C@@H]23)[C@H]1COC(C)=O`: 48.7 µM.
Same read-out and setting: the same measure for `Cc1ccc(N=NC(=Nc2ccccc2)c2ccc(N(CCC#N)CCC#N)cc2)cc1`: more than 100 µM.
Same read-out and setting: the same measure for `C[C@@H]1CC[C@]2(C(=O)O)CC[C@]3(C)C(=CC[C@@H]4[C@@]5(C)CC[C@H](O)C(C)(C)[C@@H]5CC[C@]43C)[C@@H]2[C@]1(C)O`: 33.9 µM.
As to `CC(C)=CCc1c2c(c3occ(-c4ccc(O)cc4)c(=O)c3c1O)CC(C(C)(C)O)O2` (stereo not given), the TGI came out at 29.9 µM.
In the case of `Nc1nc(Cl)cc(NCC2(CO)CC(=O)C2)n1`, the TGI is more than 100 µM.
The same measure, in the same setting: the same measure for `COc1ccc(C2CC(c3c(O)ccc4ccccc34)=NN2C(C)=O)cc1OC` (stereo not given): 54.4 µM; for `O=C(N/N=C(/COc1ccc(Cl)cc1)N=Cc1ccncc1)c1ccncc1`: more than 100 µM.
On the same count and under the same terms, next, `COc1ccc2cc(NC(=O)N/N=C\c3ccc([N+](=O)[O-])cc3)ccc2c1`: more than 100 µM; `NC(N)=N/N=C/c1c(-c2ccc(N)cc2)nc2sccn12`: 99.2 µM.
Same read-out and setting: the same measure for `COc1cc(Br)cc2cc(-c3cn4ccsc4n3)c(=O)oc12`: more than 100 µM.
Consider `COc1ccc(N/N=C2\CCOc3ccc(C)cc3C2=O)cc1`, for which the TGI was determined as 84.1 µM.
In the case of `COC(=O)C1SC(SC)=NC12c1ccccc1Nc1ccccc12` (stereo not given), the TGI came to 49.4 µM.
Turning to `CCOC(=O)CSc1c(C(=O)OCC)c(=O)n(-c2ccccc2)c(=S)n1-c1ccccc1`, the TGI is more than 100 µM.
On the same count and under the same terms, next, `C=CC1(C)CCC2C(=CCC3C2(C)CC(O)C(O)C3(C)COC2OC(C(=O)O)C(O)C(O)C2O)C1` (stereo not given) (tested in a mixture with another compound): more than 100 µM; `C=C1C(=O)O[C@@H]2C(=O)[C@@H](C)CCC/C(C)=C/CC[C@@]3(C)O[C@@H]3C[C@@H]12`: 54.1 µM.
In turn, `Cc1ccccc1C(=O)N1CCc2c([nH]c3ccccc23)C1` showed a TGI of 51.3 µM.
The compound `Cc1nc2n(c1/C=C1/C(=O)Nc3cccc(Cl)c31)CCS2` returned a TGI of more than 100 µM.
On the same count and under the same terms, next, `CCOC(=O)C(SCCO)C(C(=O)OCC)n1cnc2c(=O)[nH]c(NC(C)=O)nc21` (stereo not given): more than 100 µM; `Cc1ccc([N+](=O)[O-])cc1NC1=NCCO1`: more than 100 µM; `N#CCCC1C(C#N)C2(Cl)CC1(Cl)C(Cl)=C2Cl` (stereo not given): more than 10 µM.
`CC(C)(C)N1CSC(=S)N(Cc2ccco2)C1` showed a TGI of 0.697 µM.
Compound `O=c1c2cc([N+](=O)[O-])cnc2sn1-c1ccc([N+](=O)[O-])cc1` showed a TGI of 81.2 µM.

The test system of another assay is SK-MEL-2 melanoma. Description: growth of human tumour cells (NCI), 48 h.
As to `CCCCCCc1cc2cc(-c3csc(CC#N)n3)c(=O)oc2cc1O`, the TGI was more than 100 µM.
In the case of `CN1CCN(C2=NCCO2)CC1`, the TGI is more than 100 µM.
The compound `O=C1CSC(c2ccc(Cl)cc2)N1c1ccc(Oc2ccc(Cl)cc2)c(Cl)c1` (stereo not given) had a TGI of 33.9 µM.
`COC(=O)C([C@H](NC1(c2ccccc2)c2ccccc2-c2ccccc21)C(=O)OC)N(NC(=O)OCc1ccccc1)C(=O)OCc1ccccc1` (mixture of isomers) came in with a TGI of more than 100 µM.
On the same count and under the same terms, the same measure for `CC[C@@H]1CC[C@@H]2[C@H](CC[C@]3(C)[C@@H](OC(C)=O)CC[C@@H]23)[C@H]1COC(C)=O`: 34.5 µM; for `Cc1ccc(N=NC(=Nc2ccccc2)c2ccc(N(CCC#N)CCC#N)cc2)cc1`: 48 µM; for `C[C@@H]1CC[C@]2(C(=O)O)CC[C@]3(C)C(=CC[C@@H]4[C@@]5(C)CC[C@H](O)C(C)(C)[C@@H]5CC[C@]43C)[C@@H]2[C@]1(C)O`: 31.8 µM.
Still for that read-out and setting: the same measure for `CC(C)=CCc1c2c(c3occ(-c4ccc(O)cc4)c(=O)c3c1O)CC(C(C)(C)O)O2` (stereo not given): 28.1 µM; for `Nc1nc(Cl)cc(NCC2(CO)CC(=O)C2)n1`: more than 100 µM; for `COc1ccc(C2CC(c3c(O)ccc4ccccc34)=NN2C(C)=O)cc1OC` (stereo not given): 52.1 µM.
As to `O=C(N/N=C(/COc1ccc(Cl)cc1)N=Cc1ccncc1)c1ccncc1`, the TGI is more than 100 µM.
On the same count and under the same terms, the same measure for `COc1ccc2cc(NC(=O)N/N=C\c3ccc([N+](=O)[O-])cc3)ccc2c1`: more than 100 µM; for `NC(N)=N/N=C/c1c(-c2ccc(N)cc2)nc2sccn12`: 81.8 µM.
